Laboratory results from patent US20230114728A1 (Venatorx Pharmaceuticals, Inc., priority 2019, published 2023).
In brackets after ≈: the same amount, converted by molar mass.

Key:
Type in all cases: cell-based
[1] = tested on: N. gonorrhoeae WHO Q; experiment: Liquid broth MIC in Fastidious broth; conditions: Neisseria gonorrhoeae, read-out: Minimum Inhibitory Concentration, N. gonorrhoeae WHO Q
Procedure, shortened: (§1)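 Mosaic PBP2 producers; colonies from 24 h chocolate agar, saline suspension, OD600. Fastidious broth, 2-fold dilutions, 5×10^5 CFU/mL. ~24 h, 36 °C, 5% CO2; visual MIC, <10% growth cutoff.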

[2] = tested on: N. gonorrhoeae WHO K; experiment: Liquid broth MIC in Fastidious broth; conditions: Neisseria gonorrhoeae, read-out: Minimum Inhibitory Concentration, N. gonorrhoeae WHO K
Procedure, shortened: as §1

[3] = tested on: N. gonorrhoeae ATCC 49226; experiment: Liquid broth MIC in Fastidious broth; conditions: Neisseria gonorrhoeae, ATCC49226; N. gonorrhoeae strain ATCC 49226; Fastidious broth; read-out: Minimum Inhibitory Concentration, N. gonorrhoeae ATCC 49226
Procedure, shortened: (§2)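 Colonies were swabbed from chocolate agar after 24 h growth and standardised by optical density at 600 nm. Compounds were serially diluted twofold in Fastidious broth, and bacteria added to give 5×10^5 CFU/mL. After about 24 h at 36 °C in 5% CO2, the lowest concentration allowing under 10% growth was taken as MIC.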

[4] = tested on: N. gonorrhoeae WHO G; experiment: Liquid broth MIC in Fastidious broth; conditions: Neisseria gonorrhoeae; N. gonorrhoeae strain WHO G; Fastidious broth; read-out: Minimum Inhibitory Concentration, N. gonorrhoeae WHO G
Procedure, shortened: as §2

[5] = tested on: N. gonorrhoeae WHO L; experiment: Liquid broth MIC in Fastidious broth; conditions: Neisseria gonorrhoeae; N. gonorrhoeae strain WHO L; Fastidious broth; read-out: Minimum Inhibitory Concentration, N. gonorrhoeae WHO L
Procedure, shortened: as §2

[6] = tested on: N. gonorrhoeae WHO Z; experiment: Liquid broth MIC in Fastidious broth; conditions: Neisseria gonorrhoeae, read-out: Minimum Inhibitory Concentration, N. gonorrhoeae WHO Z
Procedure, shortened: as §1

[7] = tested on: N. gonorrhoeae H041; experiment: Liquid broth MIC in Fastidious broth; conditions: Neisseria gonorrhoeae, H041, read-out: Minimum Inhibitory Concentration, N. gonorrhoeae H041
Procedure, shortened: as §1

[8] = tested on: N. gonorrhoeae FA1090; experiment: Liquid broth MIC in Fastidious broth; conditions: Neisseria gonorrhoeae; N. gonorrhoeae strain FA1090; Fastidious broth; read-out: Minimum Inhibitory Concentration, N. gonorrhoeae FA1090
Procedure, shortened: as §2

[9] = tested on: E. coli 901C; experiment: Broth microdilution MIC in CAMHB; conditions: Escherichia coli; E. coli 901C (hyper-permeable); MHB; read-out: Minimum Inhibitory Concentration, E. coli 901C
Procedure, shortened: (§3)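 CLSI broth microdilution in CAMHB: 2-fold compound dilutions inoculated at 2-8×10^5 CFU/mL from 3-5 h log-phase cultures. Incubated at 37 °C for 16-20 h (Enterobacteriaceae, Pseudomonas); MIC read visually as lowest concentration without growth. Strains include hyper-permeable and efflux-deficient mutants.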

[10] = tested on: E. coli D22; experiment: Broth microdilution MIC in CAMHB; conditions: Escherichia coli; E. coli D22 (hyper-permeable); MHB; read-out: Minimum Inhibitory Concentration, E. coli D22
Procedure, shortened: as §3

[11] = tested on: K. pneumoniae SI-117 producing VIM-1; experiment: Broth microdilution MIC in CAMHB; conditions: Klebsiella pneumoniae, read-out: Minimum Inhibitory Concentration, K. pneumoniae SI-117
Procedure, shortened: as §3

[12] = tested on: E. coli AG100; experiment: Broth microdilution MIC in CAMHB; conditions: Escherichia coli; E. coli AG100 (wild-type parent); MHB; read-out: Minimum Inhibitory Concentration, E. coli AG100
Procedure, shortened: as §3

[13] = tested on: A. baumannii ATCC 19606; experiment: Broth microdilution MIC in CAMHB; conditions: Acinetobacter baumannii, ATCC19606; MHB; read-out: Minimum Inhibitory Concentration, A. baumannii ATCC 19606
Procedure, shortened: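 MIC, read by eye, is the lowest compound concentration giving no bacterial growth after 16-20 h at 37° C. Test compounds are serially diluted 2-fold in CAMHB and seeded with 2-8×10^5 CFU/mL of bacteria taken from a 3-5 h shaking culture, following CLSI methods.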

Row | Structure (SMILES) | MIC [1] [µg/mL] | MIC [2] [µg/mL] | MIC [3] [µg/mL] | MIC [4] [µg/mL] | MIC [5] [µg/mL] | MIC [6] [µg/mL] | MIC [7] [µg/mL] | MIC [8] [µg/mL] | MIC [9] [µg/mL] | MIC [10] [µg/mL] | MIC [11] [µg/mL] | MIC [12] [µg/mL] | MIC [13] [µg/mL]
1 | NCCN1CCN(C(=O)N[C@H](C(=O)N[C@H]2Cc3cccc(C(=O)O)c3OB2O)c2cccc(NS(N)(=O)=O)c2)C(=O)C1=O (single isomer, unassigned) [Example 115] | > 64 | > 64 | > 64 | > 64 | > 64 | > 64 | > 64 | 4 to 8 (≈ 6.48 to 13 µM) | 2 to 4 (≈ 3.24 to 6.48 µM) | 8 to 16 (≈ 13 to 25.9 µM) | > 128 | > 128 | > 128
2 | NC1(CN2CCN(C(=O)N[C@@H](C(=O)N[C@H]3Cc4cccc(C(=O)O)c4OB3O)c3c(F)cc(O)cc3F)C(=O)C2=O)CC1 (single isomer, unassigned) [Example 121] | > 64 | > 64 | 16 to 32 (≈ 26.6 to 53.2 µM) | 16 to 32 (≈ 26.6 to 53.2 µM) | > 64 | > 64 | > 64 | 1 to 2 (≈ 1.66 to 3.33 µM) | 0.5 to 1 (≈ 0.831 to 1.66 µM) | 2 to 4 (≈ 3.33 to 6.65 µM) | 32 to 64 (≈ 53.2 to 106 µM) | 8 to 16 (≈ 13.3 to 26.6 µM) | > 128
3 | NC1(CN2CCN(C(=O)N[C@H](C(=O)N[C@H]3Cc4cccc(C(=O)O)c4OB3O)c3c(F)cc(O)cc3F)C(=O)C2=O)CC1 (single isomer, unassigned) [Example 122] | > 64 | > 64 | > 64 | > 64 | > 64 | > 64 | > 64 | 4 to 8 (≈ 6.65 to 13.3 µM) | 2 to 4 (≈ 3.33 to 6.65 µM) | 8 to 16 (≈ 13.3 to 26.6 µM) | 32 to 64 (≈ 53.2 to 106 µM) | 32 to 64 (≈ 53.2 to 106 µM) | > 128
4 | CCN1CCN(C(=O)N[C@H](C(=O)N[C@H]2Cc3cccc(C(=O)O)c3OB2O)c2ccc(C(=O)O)cc2)C(=O)C1=O (single isomer, unassigned) [Example 123] | 4 to 8 (≈ 7.24 to 14.5 µM) | 4 to 8 (≈ 7.24 to 14.5 µM) | 4 to 8 (≈ 7.24 to 14.5 µM) | 1 to 2 (≈ 1.81 to 3.62 µM) | 16 to 32 (≈ 29 to 57.9 µM) | 1 to 2 (≈ 1.81 to 3.62 µM) | 16 to 32 (≈ 29 to 57.9 µM) | 0.25 to 0.5 (≈ 0.453 to 0.905 µM) | < 0.25 | 2 to 4 (≈ 3.62 to 7.24 µM) | > 128 | 32 to 64 (≈ 57.9 to 116 µM) | > 128
5 | CCN1CCN(C(=O)N[C@@H](C(=O)N[C@H]2Cc3cccc(C(=O)O)c3OB2O)c2ccc(C(=O)O)cc2)C(=O)C1=O (single isomer, unassigned) [Example 124] | 1 to 2 (≈ 1.81 to 3.62 µM) | 4 to 8 (≈ 7.24 to 14.5 µM) | 1 to 2 (≈ 1.81 to 3.62 µM) | 0.25 to 0.5 (≈ 0.453 to 0.905 µM) | 4 to 8 (≈ 7.24 to 14.5 µM) | 1 to 2 (≈ 1.81 to 3.62 µM) | 4 to 8 (≈ 7.24 to 14.5 µM) | < 0.125 | < 0.25 | 2 to 4 (≈ 3.62 to 7.24 µM) | > 128 | 8 to 16 (≈ 14.5 to 29 µM) | > 128
6 | CCN1CCN(C(=O)N[C@H](C(=O)N[C@H]2Cc3ccc(F)c(C(=O)O)c3OB2O)c2c(F)cc(O)c(O)c2Cl)C(=O)C1=O (single isomer, unassigned) [Example 125] | > 64 | > 64 | > 64 | > 64 | > 64 | > 64 | > 64 | > 64 | < 0.25 | 2 to 4 (≈ 3.27 to 6.55 µM) | 32 to 64 (≈ 52.4 to 105 µM) | 32 to 64 (≈ 52.4 to 105 µM) | > 128
7 | O=C(O)c1cccc2c1OB(O)[C@@H](NC(=O)[C@H](NC(=O)N1CCN(CCF)C(=O)C1=O)c1c(F)cc(O)cc1F)C2 (single isomer, unassigned) [Example 126] | 4 to 8 (≈ 6.92 to 13.8 µM) | 16 to 32 (≈ 27.7 to 55.3 µM) | 4 to 8 (≈ 6.92 to 13.8 µM) | 1 to 2 (≈ 1.73 to 3.46 µM) | 16 to 32 (≈ 27.7 to 55.3 µM) | 4 to 8 (≈ 6.92 to 13.8 µM) | 16 to 32 (≈ 27.7 to 55.3 µM) | < 0.125 | < 0.25 | 0.5 to 1 (≈ 0.865 to 1.73 µM) | 8 to 16 (≈ 13.8 to 27.7 µM) | 8 to 16 (≈ 13.8 to 27.7 µM) | > 128
8 | NCCN1CCN(C(=O)N[C@@H](C(=O)N[C@H]2Cc3ccc(F)c(C(=O)O)c3OB2O)c2c(F)cc(O)cc2F)C(=O)C1=O (single isomer, unassigned) [Example 127] | > 64 | > 64 | 16 to 32 (≈ 27 to 53.9 µM) | 16 to 32 (≈ 27 to 53.9 µM) | > 64 | > 64 | > 64 | 4 to 8 (≈ 6.74 to 13.5 µM) | 2 to 4 (≈ 3.37 to 6.74 µM) | 2 to 4 (≈ 3.37 to 6.74 µM) | 32 to 64 (≈ 53.9 to 108 µM) | 8 to 16 (≈ 13.5 to 27 µM) | > 128
9 | NCCN1CCN(C(=O)N[C@H](C(=O)N[C@H]2Cc3ccc(F)c(C(=O)O)c3OB2O)c2c(F)cc(O)cc2F)C(=O)C1=O (single isomer, unassigned) [Example 128] | > 64 | > 64 | > 64 | > 64 | > 64 | > 64 | > 64 | 16 to 32 (≈ 27 to 53.9 µM) | 8 to 16 (≈ 13.5 to 27 µM) | 8 to 16 (≈ 13.5 to 27 µM) | > 128 | 32 to 64 (≈ 53.9 to 108 µM) | > 128
10 | CS(=O)(=O)N1CCN(C(=O)N[C@@H](C(=O)N[C@H]2Cc3cccc(C(=O)O)c3OB2O)c2c(F)cc(O)cc2F)C1=O (single isomer, unassigned) [Example 135] | 16 to 32 (≈ 27.5 to 55 µM) | > 64 | 4 to 8 (≈ 6.87 to 13.7 µM) | 1 to 2 (≈ 1.72 to 3.43 µM) | 16 to 32 (≈ 27.5 to 55 µM) | 16 to 32 (≈ 27.5 to 55 µM) | > 64 | < 0.125 | < 0.25 | 2 to 4 (≈ 3.43 to 6.87 µM) | 32 to 64 (≈ 55 to 110 µM) | 32 to 64 (≈ 55 to 110 µM) | > 128
11 | CS(=O)(=O)N1CCN(C(=O)N[C@H](C(=O)N[C@H]2Cc3cccc(C(=O)O)c3OB2O)c2c(F)cc(O)cc2F)C1=O (single isomer, unassigned) [Example 136] | > 64 | > 64 | > 64 | 16 to 32 (≈ 27.5 to 55 µM) | > 64 | > 64 | > 64 | 1 to 2 (≈ 1.72 to 3.43 µM) | 0.5 to 1 (≈ 0.859 to 1.72 µM) | 8 to 16 (≈ 13.7 to 27.5 µM) | > 128 | > 128 | > 128
12 | CCN1CCN(C(=O)N[C@H](C(=O)N[C@H]2Cc3cccc(C(=O)O)c3OB2O)c2ccc(C(=O)O)c(F)c2F)C(=O)C1=O (single isomer, unassigned) [Example 139] | 4 to 8 (≈ 6.8 to 13.6 µM) | 4 to 8 (≈ 6.8 to 13.6 µM) | 1 to 2 (≈ 1.7 to 3.4 µM) | 1 to 2 (≈ 1.7 to 3.4 µM) | 4 to 8 (≈ 6.8 to 13.6 µM) | 1 to 2 (≈ 1.7 to 3.4 µM) | 4 to 8 (≈ 6.8 to 13.6 µM) | < 0.125 | < 0.25 | 2 to 4 (≈ 3.4 to 6.8 µM) | > 128 | 32 to 64 (≈ 54.4 to 109 µM) | > 128
13 | CCN1CCN(C(=O)N[C@@H](C(=O)N[C@H]2Cc3cccc(C(=O)O)c3OB2O)c2ccc(C(=O)O)c(F)c2F)C(=O)C1=O (single isomer, unassigned) [Example 140] | 1 to 2 (≈ 1.7 to 3.4 µM) | 1 to 2 (≈ 1.7 to 3.4 µM) | 0.25 to 0.5 (≈ 0.425 to 0.85 µM) | 0.25 to 0.5 (≈ 0.425 to 0.85 µM) | 1 to 2 (≈ 1.7 to 3.4 µM) | 0.25 to 0.5 (≈ 0.425 to 0.85 µM) | 1 to 2 (≈ 1.7 to 3.4 µM) | < 0.125 | < 0.25 | 2 to 4 (≈ 3.4 to 6.8 µM) | > 128 | 32 to 64 (≈ 54.4 to 109 µM) | > 128
14 | CCN1CCN(C(=O)N[C@H](C(=O)N[C@H]2Cc3cccc(C(=O)O)c3OB2O)c2ccc(C(=O)O)cc2O)C(=O)C1=O (single isomer, unassigned) [Example 143] | > 64 | > 64 | 16 to 32 (≈ 28.2 to 56.3 µM) | 4 to 8 (≈ 7.04 to 14.1 µM) | > 64 | 16 to 32 (≈ 28.2 to 56.3 µM) | > 64 | 1 to 2 (≈ 1.76 to 3.52 µM) | 0.5 to 1 (≈ 0.88 to 1.76 µM) | 8 to 16 (≈ 14.1 to 28.2 µM) | > 128 | > 128 | > 128
